Values joined by “and” are separate entries in the source; they are usually repeats but may differ in a detail not shown here. Identical values can stand only once.
Columns and labels:
Assay type in all cases: cell-based, HIV
NDK (clade D) virus = experiment: RT activity and cell number as a function of the moment of incorporation, NDK virus; conditions: 0.1 μM; for Number of cells, J7: day 7; for Number of cells, J3 / Quantity of RT measured, J3: day 3
Description: The procedure was the same as that previously indicated with regard to the experiments carried out on MT4 cells; e.g., as in Example 2A.
The results of the measurements done on days 3 and 7 are summarized in Table D; RT activity is expressed in dpm/mL and cells are expressed in 10^6 cells/mL.

[1] = system: RTMC virus (clade B), resistant to AZT; experiment: RT activity in supernatant and cell number of CEM cells infected by RTMC virus; conditions: 0.1 μM, RMTC viral dilution 5 · 10^−4
Procedure: The cells were counted every three days and the cultures diluted with a view of culturing 0.5*10^6 cells/mL; the RT activity assay was done following a protocol comprising:
measurement of the radioactivity of the DNA synthesized, said radioactivity being proportional to the quantity of tritiated thymidine incorporated into said synthesized DNA, which itself is proportional to RT activity and thus to the number of viruses produced by replication.
The contents (1 mL) of each well was centrifuged for 5 minutes at 1500 r.p.m. (Jouan GR 422 centrifuge) and then the culture supernatant obtained was ultracentrifuged at 4° C., 95000 r.p.m. (Beckman TL100 ultracentrifuge) in order to obtain the viral pellet.
The viral pellet was then placed in a test tube containing 10 μL of NTE buffer to which 0.1% of triton was added, which releases the viral enzymes, particularly RT; the tube was then vortexed, covered with parafilm and held for 10 minutes at 4° C. and then frozen at −20° C.
As many test tubes containing this reaction mixture were prepared as there were samples to be tested. […]
The amount of radioactivity that was measured is proportional to the RT activity present and, consequently, to the number of viruses produced by replication. […]

NDK virus = experiment: Number of syncitia in MT4 cell culture infected by NDK virus; parameters: key to Number of Syncitia in the Culture (wells), J3 / Number of Syncitia in the Culture (wells), J4 / Number of Syncitia in the Culture (wells), J5 / Number of Syncitia in the Culture (wells), J6: the absence of syncitia is indicated by a minus (−) sign; the (+), +, ++, ++T signs indicate an increasing number of syncitia in each well; the (+), +, ++, ++T signs indicate an increasing number of syncitia in each well; the (+), +, ++, ++T signs indicate an increasing number of syncitia in each well; the (+), +, ++, ++T signs indicate an increasing number of syncitia in each well; The indication “T” indicates the death of the cells; conditions: for Number of Syncitia in the Culture (wells), J3: day 3; for Number of Syncitia in the Culture (wells), J4: day 4; for Number of Syncitia in the Culture (wells), J5: day 5; for Number of Syncitia in the Culture (wells), J6: day 6
Procedure: Then infection of the cells was carried out by adding to each well, with the exception of those wells being used as control cells, 50 μL of previously titrated virus dilution.
After an additional hour of incubation, the plate was centrifuged and the supernatant containing the residual virus was discarded.
After 3 days of culture, the cells were diluted to half and the syncitia were observed using the inverse microscope from day 3 to day 7 after having been placed in suspension.
In the third case, the MT4 cell culture was preincubated for one hour at 37° C., then the cells were infected, the whole was subjected to incubation for one hour at 37° C., then to centrifugation with the elimination of the supernatant containing the virus that had not penetrated into the cells.
In each of the four types of experiments that have just been described, and as previously indicated, the cells were diluted to half after three days of culture and then the syncitia were observed using the inverted microscope from day 3 to day 7.
In the experiments described in greater detail hereinafter, the absence of syncitia is indicated by a minus (−) sign and the (+), +, ++, ++T signs indicate an increasing number of syncitia in each well.
The indication “T” indicates the death of the cells.

[2] = Continously, before, during and after
[3] = Continuous, before, during and after infection, 0.4 μm

3′-azidothymidine [AZT]
Number of cells, J7 (NDK (clade D) virus): 3.2 10^6 Cells/mL and 1.6 10^6 Cells/mL | Number of cells, J3 (NDK (clade D) virus; After infection): 1.2 10^6 Cells/mL and 0.8 10^6 Cells/mL | Quantity of RT measured, J3 (NDK (clade D) virus; After infection): 1249 dpm/mL and 956 dpm/mL | Number of cells, J7 (NDK (clade D) virus; After infection): 1.8 10^6 Cells/mL and 3.2 10^6 Cells/mL | Number of cells, J3 (NDK (clade D) virus; Before infection): 1.4 10^6 Cells/mL and 0.8 10^6 Cells/mL | Number of cells, J7 (NDK (clade D) virus; Before infection): 2 10^6 Cells/mL and 3.8 10^6 Cells/mL | Number of cells, J3 (NDK (clade D) virus; [2]): 1.7 10^6 Cells/mL and 1.3 10^6 Cells/mL | Quantity of RT measured, J3 (NDK (clade D) virus; [2]): 399 dpm/mL and 750 dpm/mL | Number of cells, J7 (NDK (clade D) virus; [2]): 3.6 10^6 Cells/mL and 3.2 10^6 Cells/mL | Number of cells, J3 (NDK (clade D) virus; During dining room): 1.9 10^6 Cells/mL and 1.6 10^6 Cells/mL | Quantity of RT measured, J3 (NDK (clade D) virus; During dining room): 1529 dpm/mL and 956 dpm/mL | Number of cells per mL, D3 ([1]; day 3): 2.7 10^6 Cell/mL and 3.3 10^6 Cell/mL | Number of cells per mL, D10 ([1]; day 10): 0.4 10^6 Cell/mL and 0.8 10^6 Cell/mL | Number of Syncitia in the Culture (wells), J3 (NDK virus; After infection, 0.4 μm): − | Number of Syncitia in the Culture (wells), J4 (NDK virus; After infection, 0.4 μm): − | Number of Syncitia in the Culture (wells), J5 (NDK virus; After infection, 0.4 μm): − | Number of Syncitia in the Culture (wells), J6 (NDK virus; After infection): − | Number of Syncitia in the Culture (wells), J3 (NDK virus; Before infection, 0.4 μg/mL): − | Number of Syncitia in the Culture (wells), J4 (NDK virus; Before infection, 0.4 μg/mL): + and − | Number of Syncitia in the Culture (wells), J5 (NDK virus; Before infection, 0.4 μg/mL): ++ and − | Number of Syncitia in the Culture (wells), J6 (NDK virus; Before infection, 0.4 μg/mL): T and (+) | Number of Syncitia in the Culture (wells), J3 (NDK virus; [3]): − | Number of Syncitia in the Culture (wells), J4 (NDK virus; [3]): − | Number of Syncitia in the Culture (wells), J5 (NDK virus; [3]): − | Number of Syncitia in the Culture (wells), J6 (NDK virus; Continuous, before, during and after infection): − | Number of Syncitia in the Culture (wells), J3 (NDK virus; During infection, 0.4 μm): − | Number of Syncitia in the Culture (wells), J4 (NDK virus; During infection, 0.4 μm): − | Number of Syncitia in the Culture (wells), J5 (NDK virus; During infection, 0.4 μm): − | Number of Syncitia in the Culture (wells), J6 (NDK virus; During infection): −

From patent publication US20080269162A1, “Novel Medicaments for Anti-Retroviral Treatments” (priority 2006, published 2008)
